Measured values: the CheMixHub viscosity set

Assay: xn = mol fraction of the nth substance listed

Clc1ccccc1 + Cc1ccccc1
Conditions | viscosity [mPa·s]
293.15 K, 101 kPa, x1 = 0.0994 | 0.6134
293.15 K, 101 kPa, x1 = 0.2021 | 0.635
293.15 K, 101 kPa, x1 = 0.2979 | 0.6571
293.15 K, 101 kPa, x1 = 0.3973 | 0.6775
293.15 K, 101 kPa, x1 = 0.5013 | 0.7014
293.15 K, 101 kPa, x1 = 0.6023 | 0.7232
293.15 K, 101 kPa, x1 = 0.7024 | 0.7433
293.15 K, 101 kPa, x1 = 0.8007 | 0.7655
293.15 K, 101 kPa, x1 = 0.9047 | 0.786
293.15 K, 101 kPa, x2 = 0.2 | 0.751
293.15 K, 101 kPa, x2 = 0.4 | 0.709
293.15 K, 101 kPa, x2 = 0.6 | 0.667
293.15 K, 101 kPa, x2 = 0.8 | 0.626
294.55 K, 101.33 kPa, x1 = 0.2 | 0.6717
294.55 K, 101.33 kPa, x1 = 0.7 | 0.7968
294.75 K, 101.33 kPa, x1 = 0.3 | 0.6949
294.85 K, 101.33 kPa, x1 = 0.1 | 0.6367
295.05 K, 101.33 kPa, x1 = 0.4 | 0.7214
298.15 K, 101 kPa, x1 = 0.0994 | 0.5773
298.15 K, 101 kPa, x1 = 0.2021 | 0.5971
298.15 K, 101 kPa, x1 = 0.2979 | 0.6179
298.15 K, 101 kPa, x1 = 0.3973 | 0.6368
298.15 K, 101 kPa, x1 = 0.5013 | 0.6596
298.15 K, 101 kPa, x1 = 0.6023 | 0.6799
298.15 K, 101 kPa, x1 = 0.7024 | 0.6984
298.15 K, 101 kPa, x1 = 0.8007 | 0.7195
298.15 K, 101 kPa, x1 = 0.9047 | 0.7386
298.15 K, 101 kPa, x2 = 0.101 | 0.7515
298.15 K, 101 kPa, x2 = 0.2035 | 0.7315
298.15 K, 101 kPa, x2 = 0.243 | 0.687
298.15 K, 101 kPa, x2 = 0.3026 | 0.7086
298.15 K, 101 kPa, x2 = 0.4005 | 0.6929
298.15 K, 101 kPa, x2 = 0.45 | 0.646
298.15 K, 101 kPa, x2 = 0.5004 | 0.6721
298.15 K, 101 kPa, x2 = 0.6014 | 0.6486
298.15 K, 101 kPa, x2 = 0.643 | 0.608
298.15 K, 101 kPa, x2 = 0.7008 | 0.6321
298.15 K, 101 kPa, x2 = 0.803 | 0.577
298.15 K, 101 kPa, x2 = 0.8048 | 0.6088
298.15 K, 101 kPa, x2 = 0.8995 | 0.592
303.15 K, 101 kPa, x1 = 0.0994 | 0.5443
303.15 K, 101 kPa, x1 = 0.2021 | 0.5628
303.15 K, 101 kPa, x1 = 0.2979 | 0.5824
303.15 K, 101 kPa, x1 = 0.3973 | 0.5999
303.15 K, 101 kPa, x1 = 0.5013 | 0.6212
303.15 K, 101 kPa, x1 = 0.6023 | 0.6405
303.15 K, 101 kPa, x1 = 0.7024 | 0.6579
303.15 K, 101 kPa, x1 = 0.8007 | 0.6779
303.15 K, 101 kPa, x1 = 0.9047 | 0.6957
303.15 K, 101 kPa, x2 = 0.0961 | 0.6999
303.15 K, 101 kPa, x2 = 0.101 | 0.7125
303.15 K, 101 kPa, x2 = 0.193 | 0.6791
303.15 K, 101 kPa, x2 = 0.2035 | 0.6925
303.15 K, 101 kPa, x2 = 0.2907 | 0.6641
303.15 K, 101 kPa, x2 = 0.3026 | 0.6713
303.15 K, 101 kPa, x2 = 0.3894 | 0.6454
303.15 K, 101 kPa, x2 = 0.4005 | 0.6547
303.15 K, 101 kPa, x2 = 0.4889 | 0.63
303.15 K, 101 kPa, x2 = 0.5004 | 0.637
303.15 K, 101 kPa, x2 = 0.5893 | 0.6109
303.15 K, 101 kPa, x2 = 0.6014 | 0.6131
303.15 K, 101 kPa, x2 = 0.6906 | 0.5935
303.15 K, 101 kPa, x2 = 0.7008 | 0.5992
303.15 K, 101 kPa, x2 = 0.7928 | 0.5753
303.15 K, 101 kPa, x2 = 0.8048 | 0.577
303.15 K, 101 kPa, x2 = 0.8959 | 0.5561
303.15 K, 101 kPa, x2 = 0.8995 | 0.5584
303.25 K, 101.33 kPa, x1 = 0.7 | 0.7203
303.35 K, 101.33 kPa, x1 = 0.3 | 0.6272
303.55 K, 101.33 kPa, x1 = 0.1 | 0.5816
303.75 K, 101.33 kPa, x1 = 0.4 | 0.6426
304.15 K, 101.33 kPa, x1 = 0.2 | 0.6008
308.15 K, 101 kPa, x2 = 0.101 | 0.6704
308.15 K, 101 kPa, x2 = 0.2035 | 0.6518
308.15 K, 101 kPa, x2 = 0.3026 | 0.6334
308.15 K, 101 kPa, x2 = 0.4005 | 0.6181
308.15 K, 101 kPa, x2 = 0.5004 | 0.5983
308.15 K, 101 kPa, x2 = 0.6014 | 0.5769
308.15 K, 101 kPa, x2 = 0.7008 | 0.5641
308.15 K, 101 kPa, x2 = 0.8048 | 0.5447
308.15 K, 101 kPa, x2 = 0.8995 | 0.5279
313.05 K, 101.33 kPa, x1 = 0.3 | 0.5636
313.15 K, 101 kPa, x1 = 0.0994 | 0.4872
313.15 K, 101 kPa, x1 = 0.2021 | 0.503
313.15 K, 101 kPa, x1 = 0.2979 | 0.5205
313.15 K, 101 kPa, x1 = 0.3973 | 0.536
313.15 K, 101 kPa, x1 = 0.5013 | 0.5551
313.15 K, 101 kPa, x1 = 0.6023 | 0.5721
313.15 K, 101 kPa, x1 = 0.7024 | 0.5874
313.15 K, 101 kPa, x1 = 0.8007 | 0.6056
313.15 K, 101 kPa, x1 = 0.9047 | 0.6216
313.15 K, 101 kPa, x2 = 0.0961 | 0.6302
313.15 K, 101 kPa, x2 = 0.101 | 0.6317
313.15 K, 101 kPa, x2 = 0.193 | 0.6128
313.15 K, 101 kPa, x2 = 0.2 | 0.597
313.15 K, 101 kPa, x2 = 0.2035 | 0.6152
313.15 K, 101 kPa, x2 = 0.2907 | 0.5947
313.15 K, 101 kPa, x2 = 0.3026 | 0.5974
313.15 K, 101 kPa, x2 = 0.3894 | 0.5789
313.15 K, 101 kPa, x2 = 0.4 | 0.564
313.15 K, 101 kPa, x2 = 0.4005 | 0.5833
313.15 K, 101 kPa, x2 = 0.4889 | 0.5763
313.15 K, 101 kPa, x2 = 0.5004 | 0.5662
313.15 K, 101 kPa, x2 = 0.5893 | 0.5475
313.15 K, 101 kPa, x2 = 0.6 | 0.53
313.15 K, 101 kPa, x2 = 0.6014 | 0.545
313.15 K, 101 kPa, x2 = 0.6906 | 0.5414
313.15 K, 101 kPa, x2 = 0.7008 | 0.5312
313.15 K, 101 kPa, x2 = 0.7928 | 0.5159
313.15 K, 101 kPa, x2 = 0.8 | 0.498
313.15 K, 101 kPa, x2 = 0.8048 | 0.5134
313.15 K, 101 kPa, x2 = 0.8959 | 0.5005
313.15 K, 101 kPa, x2 = 0.8995 | 0.4983
313.25 K, 101.33 kPa, x1 = 0.1 | 0.5257
313.25 K, 101.33 kPa, x1 = 0.4 | 0.5837
313.35 K, 101.33 kPa, x1 = 0.2 | 0.5458
313.65 K, 101.33 kPa, x1 = 0.7 | 0.6385
322.55 K, 101.33 kPa, x1 = 0.3 | 0.5132
322.75 K, 101.33 kPa, x1 = 0.1 | 0.478
322.85 K, 101.33 kPa, x1 = 0.2 | 0.4964
323.15 K, 101 kPa, x2 = 0.0961 | 0.5575
323.15 K, 101 kPa, x2 = 0.193 | 0.5432
323.15 K, 101 kPa, x2 = 0.2907 | 0.531
323.15 K, 101 kPa, x2 = 0.3894 | 0.5111
323.15 K, 101 kPa, x2 = 0.4889 | 0.5008
323.15 K, 101 kPa, x2 = 0.5893 | 0.4829
323.15 K, 101 kPa, x2 = 0.6906 | 0.4715
323.15 K, 101 kPa, x2 = 0.7928 | 0.4539
323.15 K, 101 kPa, x2 = 0.8959 | 0.4396
323.15 K, 101.33 kPa, x1 = 0.4 | 0.5282
